Key:
[1] = tested on: E. coli NCTC13351; test: E-test MIC with or without NAB7061 (4 μg/ml), Mueller-Hinton agar; format: cell-based, Escherichia coli
Summary of the method: (§1)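 Strips carrying an antibiotic concentration gradient were placed on inoculated plates following the supplier's directions, and the MIC was then recorded.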

[2] = tested on: A. baumannii ATCC19606; test: E-test MIC of antibiotics on Mueller Hinton agar containing increasing concentrations of NAB739; format: cell-based, Acinetobacter baumannii
[3] = tested on: C. freundii ATCC8090; test: E-test MIC with or without NAB7061 (4 μg/ml), Mueller-Hinton agar; format: cell-based, Citrobacter freundii
Method: (§2) MICs were determined by using E-strips (Biodisk Ltd., Solna, Sweden) according to the manufacturer's instructions.
(§3) The strains originated from ATCC (11 strains), CCUG (11 strains), and NCTC (The National Collection of Type Cultures, Colindale, U.K.; 2 strains). Eight strains (the F-strains) were purchased from Mobidiag Ltd., Helsinki, Finland.

[4] = tested on: K. oxytoca ATCC13182; test: as above; format: cell-based, Klebsiella oxytoca
Method: as §2, §3

[5] = tested on: K. oxytoca CCUG51683; test: as above; format: cell-based, Klebsiella oxytoca
Method: as §2, §3

[6] = tested on: S. marcescens ATCC8100; test: as above; format: cell-based, Serratia marcescens
Method: as §2, §3

[7] = tested on: E. coli ATCC25922; details: E. coli ATCC25922
Summary of the method: as §1

[8] = tested on: K. pneumoniae ATCC13883; details: K. pneumoniae ATCC13883
Summary of the method: as §1

[9] = tested on: E. coli IH3080; test: Sensitization to rifampin: growth inhibition around wells on LB plates containing rifampin; format: cell-based, Escherichia coli; details: in the absence of the compounds tested
[10] = tested on: both Acinetobacter strains (ATCC 19606 and F264); test: E-test sensitization by NAB739, both strains; format: cell-based, Acinetobacter baumannii
[11] = tested on: K. pneumoniae F145; test: E-test MIC with or without NAB7061 (4 μg/ml), Mueller-Hinton agar; format: cell-based, Klebsiella pneumoniae
Method: as §2, §3

[12] = tested on: K. pneumoniae F136; test: as above; format: cell-based, Klebsiella pneumoniae
Method: as §2, §3

[13] = tested on: K. pneumoniae F144; test: as above; format: cell-based, Klebsiella pneumoniae
Method: as §2, §3

[14] = tested on: K. pneumoniae CCUG45421; test: as above; format: cell-based, Klebsiella pneumoniae
Method: as §2, §3

[15] = tested on: E. cloacae ATCC23355; test: as above; format: cell-based, Enterobacter cloacae
Summary of the method: as §1

[16] = tested on: E. cloacae F230; test: as above; format: cell-based, Enterobacter cloacae
Summary of the method: as §1

[17] = tested on: E. cloacae CCUG52947; test: as above; format: cell-based, Enterobacter cloacae
Summary of the method: as §1

[18] = tested on: E. cloacae F232; test: as above; format: cell-based, Enterobacter cloacae
Summary of the method: as §1

[19] = tested on: Ac. baumannii ATCC19606; test: as above; format: cell-based, Acinetobacter baumannii; details: Ac. baumannii ATCC19606
Method: as §2, §3

[20] = tested on: Ac. baumannii F263; test: as above; format: cell-based, Acinetobacter baumannii; details: Ac. baumannii F263
Method: as §2, §3

[21] = tested on: Ac. baumannii F264; test: as above; format: cell-based, Acinetobacter baumannii; details: Ac. baumannii F264
Method: as §2, §3

Which “Sensitization factor to antibiotic (MIC without / with 4 μg/ml of NAB 7061)” value [1] does the source give for CO[C@H]1/C=C/O[C@@]2(C)Oc3c(C)c(O)c4c(O)c(c(/C=N/N5CCN(C)CC5)c(O)c4c3C2=O)NC(=O)/C(C)=C\C=C\[C@H](C)[C@H](O)[C@@H](C)[C@@H](O)[C@@H](C)[C@H](OC(C)=O)[C@@H]1C [Rifampin] here?
The value was 340-500.

And the “MIC of antibiotic in the presence of NAB739” value (“MIC of antibiotic … of NAB739” for short) ([2]; NAB 739 0 μg/ml)?
Its value is 4 µg/mL.

What about the “MIC of antibiotic … of NAB739” value ([2]; NAB 739 0.5 μg/ml) of the same compound?
Its value is 0.047 µg/mL.

And the “MIC of antibiotic … of NAB739” value ([2]; NAB 739 1 μg/ml)?
The value was 0.006 µg/mL.

What about the “MIC of antibiotic in the presence of 4 μg/ml of NAB 7061” value (from here on “MIC of antibiotic … of NAB 7061”) [3] of the same compound?
Its value is 0.023 to 0.032 µg/mL.

What about the “Sensitization factor to antibiotic (MIC without / with 4 μg/ml of NAB 7061)” value [3] of the same compound?
The value was 500-1000.

What about the “MIC of antibiotic … of NAB 7061” value [4] of the same compound?
The value was 0.032 to 0.047 µg/mL.

What about the “Sensitization factor to antibiotic (MIC without / with 4 μg/ml of NAB 7061)” value [4] of the same compound?
The value was 680-750.

What about the “MIC of antibiotic … of NAB 7061” value [5] of the same compound?
Its value is 0.012 to 0.023 µg/mL.

And the “Sensitization factor to antibiotic (MIC without / with 4 μg/ml of NAB 7061)” value [5]?
The value was 700-2000.

And the “MIC of antibiotic … of NAB 7061” value [6]?
The value was 16 µg/mL.

And the “Sensitization factor to antibiotic (MIC without / with 4 μg/ml of NAB 7061)” value [6]?
Its value is <2.

And the “MIC of antibiotic … of NAB 7061” value [7]?
Its value is 0.016 to 0.047 µg/mL.

And the “Sensitization factor to antibiotic (MIC without / with 4 μg/ml of NAB 7061)” value [7]?
Its value is 250-750.

And the “Sensitization factor to antibiotic (MIC without / with 4 μg/ml of NAB 7061)” value [8]?
The value was 250-500.

And the “concentration of rifampin needed for the inhibitory effect” value [9]?
The value was 10 µg/mL.

What about the “sensitization factors to antibiotic at NAB739 0.5 μg/ml” value [10] of the same compound?
The value was 85-128.

What about the “MIC of antibiotic … of NAB 7061” value [11] of the same compound?
The value was 0.19 to 0.25 µg/mL.

What about the “Sensitization factor to antibiotic (MIC without / with 4 μg/ml of NAB 7061)” value [11] of the same compound?
The value was 170.

And the “MIC of antibiotic … of NAB 7061” value [12]?
The value was 0.75 µg/mL.

And the “Sensitization factor to antibiotic (MIC without / with 4 μg/ml of NAB 7061)” value [12]?
The value was >43.

And the “MIC of antibiotic … of NAB 7061” value [13]?
Its value is 0.19 µg/mL.

And the “Sensitization factor to antibiotic (MIC without / with 4 μg/ml of NAB 7061)” value [13]?
The value was >170.

What about the “MIC of antibiotic … of NAB 7061” value [14] of the same compound?
The value was 2 to 3 µg/mL.

What about the “Sensitization factor to antibiotic (MIC without / with 4 μg/ml of NAB 7061)” value [14] of the same compound?
The value was 10-20.

What about the “MIC of antibiotic … of NAB 7061” value [15] of the same compound?
Its value is 0.008 to 0.016 µg/mL.

What about the “Sensitization factor to antibiotic (MIC without / with 4 μg/ml of NAB 7061)” value [15] of the same compound?
Its value is 750-1500.

What about the “MIC of antibiotic … of NAB 7061” value [16] of the same compound?
Its value is 0.016 to 0.032 µg/mL.

And the “Sensitization factor to antibiotic (MIC without / with 4 μg/ml of NAB 7061)” value [16]?
Its value is 1500.

And the “MIC of antibiotic … of NAB 7061” value [17]?
Its value is 0.032 to 0.047 µg/mL.

And the “Sensitization factor to antibiotic (MIC without / with 4 μg/ml of NAB 7061)” value [17]?
The value was 500-1000.

What about the “MIC of antibiotic … of NAB 7061” value [18] of the same compound?
The value was 0.023 µg/mL.

What about the “Sensitization factor to antibiotic (MIC without / with 4 μg/ml of NAB 7061)” value [18] of the same compound?
Its value is 1400.

And the “Sensitization factor to antibiotic (MIC without / with 4 μg/ml of NAB 7061)” value [19]?
The value was 24-32.

And the “MIC of antibiotic … of NAB 7061” value [20]?
Its value is 0.032 to 0.19 µg/mL.

And the “Sensitization factor to antibiotic (MIC without / with 4 μg/ml of NAB 7061)” value [21]?
The value was 32.
